Tests used:
[1] = system: Carrageenin edema in rat's paw; assay: Carrageenin Edema Test in Rat's Paw (anti-inflammatory activity, Table 1); assay type: in vivo; settings: 100 mg/kg oral; for inhibition in vivo at 100 mg/kg: hydrochloride, rat; for anti-inflammatory activity in comparison with compounds of the invention: Carrageenin edema
Protocol: An anti-inflammatory activity was measured by orally administering 100 mg/kg of a hydrochloride of the indazole derivative of this invention as set forth in Table 1 to an animal in accordance with the standard method of Carrageenin Edema Test in Rat's Paw described in C. A. Winter et al., Proc. Soc. Exp. Biol. Med., 111, 544 (1962).

in vivo = settings: mouse, ip, intraperitoneal, hydrochloride, male ddy mice

| Structure (SMILES) | inhibition in vivo at 100 mg/kg [1] [%] | LD50 (in vivo) [mg/kg] | anti-inflammatory activity in comparison with compounds of the invention [1] |
| --- | --- | --- | --- |
| CC1CCCC(C)N1CCCNc1n[nH]c2ccc(O)cc12 (centres unmarked) [(82), 3-[3-(2,6-Dimethylpiperidino)propylamino]-5-hydroxyindazole] | 30 | 230 |  |
| CC(C)CC(CCNc1n[nH]c2ccc(Cl)cc12)N1CCCCC1 (centres unmarked) [(58), 3-(3-Piperidino-5-methylhexylamino)-5-chloroindazole] | 40 | 180 |  |
| CCN(CC)CCCNc1nn(CCCN(CC)CC)c2ccc(Cl)cc12 [(90), 1-(3-Diethylaminopropyl)-3-(3-diethylaminopropylamino)-5-chloroindazole] | 29 | 223 |  |
| Oc1ccc2c(c1)c(NCCCN1CCC(Cl)CC1)nn2CCCN1CCOCC1 [(147), 1-(3-Morpholinopropyl)-3-[3-(4-chloropiperidino)propylamino]-5-hydroxyindazole] | 29 | 181 |  |
| Nc1nn(CCCN2CCOCC2)c2ccc(Cl)cc12 [(22), 1-(3-Morpholinopropyl)-3-amino-5-chloroindazole] | 46 | 388 |  |
| CCN(CC)CCCNc1nn(CCCN2CCOCC2)c2ccccc12 [(155), 1-(3-Morpholinopropyl)-3-(3-diethylaminopropylamino)indazole] | 30 | 291 |  |
| CC(CCNc1n[nH]c2ccc(O)cc12)N(C)C (centres unmarked) [(75), 3-(3-Dimethylaminobutylamino)-5-hydroxyindazole] | 34 | 234 |  |
| CCN(CC)CCCNc1nn(CCCN(CC)CC)c2c(I)cccc12 [(124), 1-(3-Diethylaminopropyl)-3-(3-diethylaminopropylamino)-7-iodoindazole] | 29 | 313 |  |
| CCCCN(CCCC)CCCNc1n[nH]c2ccc(Cl)cc12 [(52), 3-(3-Di-n-butylaminopropylamino)-5-chloroindazole] | 61 | 211 |  |
| Nc1nn(CCCN2CCCCCC2)c2ccc(Cl)cc12 [(19), 1-(3-Homopiperidinopropyl)-3-amino-5-chloroindazole] | 38 | 251 |  |
| CCCCN(CCCC)CCCn1nc(N)c2cc(Cl)ccc21 [(8), 1-(3-Di-n-butylaminopropyl)-3-amino-5-chloroindazole] | 56 | 231 |  |
| Clc1ccc2[nH]nc(NCCCCCCN3CCCCC3)c2c1 [(56), 3-(6-Piperidinohexylamino)-5-chloroindazole] | 29 | 145 |  |
| Nc1n[nH]c2c(N)cccc12 [Compound C-3, 3,7-diaminoindazole, reference compound] | 6 |  | little anti-inflammatory activity |
| CCN(CC)CCCNc1n[nH]c2ccc(OC)cc12 [(50), 3-(3-Diethylaminopropylamino)-5-methoxyindazole] | 52 | 200 |  |
| CN1CCN(CCCNc2n[nH]c3ccc(Cl)cc23)CC1 [(64), 3-[3-(4-Methylpiperadino)propylamino]-5-chloroindazole] | 29 | 229 |  |
| CCN(CC)CCCNc1nn(CCCN(CC)CC)c2ccc(C)cc12 [(95), 1-(3-Diethylaminopropyl)-3-(3-diethylaminopropylamino)-5-methylindazole] | 29 | 211 |  |
| CC(CCn1nc(N)c2cc(Cl)ccc21)N1CCCCC1 (centres unmarked) [(13), 1-(3-Piperidinobutyl)-3-amino-5-chloroindazole] | 49 | 310 |  |

| Structure (SMILES) | inhibition in vivo at 100 mg/kg [1] [%] | LD50 (in vivo) [mg/kg] | anti-inflammatory activity in comparison with compounds of the invention [1] |
| --- | --- | --- | --- |
| CCN(CC)C(CCNc1nn(CCC(C)N(C)C)c2ccc(O)cc12)CC(C)C (centres unmarked) [(141), 1-(3-Dimethylaminobutyl)-3-(3-diethylamino-5-methylhexylamino)-5-hydroxyindazole] | 21 | 340 |  |
| CC(CCNc1n[nH]c2ccccc12)N1CCOCC1 (centres unmarked) [(153), 3-(3-Morpholinobutylamino)indazole] | 51 | 331 |  |
| CCN(CC)CCCNc1n[nH]c2c(I)cccc12 [(72), 3-(3-Diethylaminopropylamino)-7-iodoindazole] | 53 | 253 |  |
| CCN(CC)CCCNc1nn(CCCN(CC)CC)c2c(Cl)cccc12 [(92), 1-(3-Diethylaminopropyl)-3-(3-diethylaminopropylamino)-7-chloroindazole] | 32 | 211 |  |
| c1ccc2c(c1)c(NCCCN1CCOCC1)nn2CCCN1CCCCC1 [(160), 1-(3-Piperidinopropyl)-3-(3-morpholinopropylamino)indazole] | 39 | 244 |  |
| c1ccc2c(NCCN3CCOCC3)n[nH]c2c1 [(154), 3-(2-Morpholinoethylamino)indazole] | 50 | 351 |  |
| Nc1nn(CCCN2CCCCCC2)c2ccc(O)cc12 [(41), 1-(3-Homopiperidinopropyl)-3-amino-5-hydroxyindazole] | 36 | 340 |  |
| CCN(CC)CCCNc1nn(CCCN(CC)CC)c2cccc(Cl)c12 [(89), 1-(3-Diethylaminopropyl)-3-(3-diethylaminopropylamino)-4-chloroindazole] | 30 | 214 |  |
| Oc1ccc2[nH]nc(NCCCN3CCOCC3)c2c1 [(88), 3-(3-Morpholinopropylamino)-5-hydroxyindazole] | 46 | 346 |  |
| Nc1nn(CCCN2CCOCC2)c2ccc(O)cc12 [(44), 1-(3-Morpholinopropyl)-3-amino-5-hydroxyindazole] | 46 | 368 |  |
| CC(CCNc1nn(CCCN2CCCCC2)c2ccc(O)cc12)N1CCCCC1 (centres unmarked) [(133), 1-(3-Piperidinopropyl)-3-(3-piperidinobutylamino)-5-hydroxyindazole] | 28 | 330 |  |
| CCN(CC)CCCn1nc(N)c2cc(I)ccc21 [(27), 1-(3-Diethylaminopropyl)-3-amino-5-iodoindazole] | 57 | 281 |  |
| CCN(CC)CCCNc1nn(CCCN(CC)CC)c2c(O)cccc12 [(122), 1-(3-Diethylaminopropyl)-3-(3-diethylaminopropylamino)-7-hydroxyindazole] | 31 | 245 |  |
| Nc1nn(CCCN2CCC(Cl)CC2)c2ccc(Cl)cc12 [(18), 1-[3-(4-Chloropiperidino)propyl]-3-amino-5-chloroindazole] | 66 | 278 |  |
| CCN(CC)CCCNc1n[nH]c2ccc(O)cc12 [(68), 3-(3-Diethylaminopropylamino)-5-hydroxyindazole] | 52 | 352 |  |
| Nc1nn(CCc2ccccc2)c2ccccc12 [Compound C-2, 1-(2-phenylethyl)-3-aminoindazole, reference compound] | 7 |  | little anti-inflammatory activity |
| CCCn1nc(N)c2ccccc21 [Compound C-1, 1-propyl-3-aminoindazole, reference compound] | 7 |  | little anti-inflammatory activity |

— patent US4751302A, “Indazole derivatives” (priority 1982, dated 1988)
